Data reported in patent US9750247B2, “Nematotoxic composition of synergistic effect, use of a nematotoxic composition of synergistic effect” (EMPRESA BRASILEIRA DE PESQUISA AGROPECUARIA—EMBRAPA, priority 2012, dated 2017).

Columns and labels:
J2 of M. incognita = assay: Recovery assay using distilled water (nematicidal vs nematostatic effect); type: in vivo
Description: (§1) FIG. 9—(A) Bioassay showing the effect of the commercial compounds on second-stage juveniles of M. incognita after 48 hours' exposure. 1—Control dH20, 2—DECE, 3—Glycose 10%, 4—Glycose 20%, 5—D-Pinitol (80 ug), 6—D-Pinitol (150 ug), 7—L-canavanina (80 ug), 8—L-canavanina (150 ug), 9—palmitic acid (80 ug), 10—palmitic acid (150 ug), 11—citric acid (80 ug), 12—citric acid (150 ug), 13—malic acid (80 ug), 14—malic acid (150 ug), 15—cis-aconitic acid (80 ug), 16—cis-anonitic acid (150 ug), 17—trans-anonitic acid (80 ug), 18—trans-aconitic acid (150 ug), 19—50 mM Tris/HCl pH 8, 20—50 mM acetic acid pH 5, 21—L-phenylamine (80 ug), 22—L-phenylamine (150 ug), 23—L-methionine (80 ug), 24—L-methionine (150 ug), 25—L-tryptophan (80 ug), 26—L-tryptophan (150 ug), 27—S-carboxymethylcistein (80 ug), 28—S-carboxymethylcisteine (150 ug), 29—Zantotoxine (80 ug), 30—Zantotoxine (150 ug), and 31—Glucose 20%+L-canavanine (15) ug). B—Evaluation of the effect of the different commercial compounds after the recovery assay using distilled water.
(§2) FIG. 10—(A) Bioassay showing the effect of the commercial compounds and their compositions on second-stage juveniles of M. incognita (J1) after 48 hours' exposure. C+ positive control (extract); C−: negative control (water); 2: palmitic acid; 3: S-carboxymethylcisteine; 4: trans-aconitic acid; 5: glucose. […] (B)—Evaluation of the effect of the different commercial compounds and their compositions after the recovery assay using distilled water. C+ positive control (extract); 2: palmitic acid; 3: S-carboxymethylcisteine; 4: trans-aconitic acid; 5: glucose.
(§3) In this context, compounds produced commercially with biological functions identified after research in the literature and present in the nematotoxic fractions of C. ensiformis were tested in bioassay against M. incognita juveniles (FIG. 9A).

[1] = tested on: second-stage juveniles (J2) of M. incognita; assay: Bioassay against second-stage juveniles (J2) of M. incognita, 48 hours' exposure (paralysis); type: in vivo; conditions: for nematotoxic effect on J2 / J2 paralyzed / % paralyzed nematodes / % of paralyzed nematodes: 48 hours' exposure; for % of paralyzed nematodes: 0.25 g/L (of each compound)
Description: as §1, §2, §3

| Compound | nematotoxic effect on J2 ([1]; 80 μg/300 μL) | kind of effect confirmed by recovery assay (J2 of M. incognita; 80 μg/300 μL) | kind of effect confirmed by recovery assay (J2 of M. incognita; 150 μg/300 μL) | J2 paralyzed ([1]; 80 μg/300 μL) | nematotoxic effect on J2 ([1]; 150 μg/300 μL) | % paralyzed nematodes ([1]; 0.125 g/L (of each compound)) [%] | % paralyzed nematodes ([1]; 0.17 g/L (of each compound)) [%] | also measured |
| --- | --- | --- | --- | --- | --- | --- | --- | --- |
| N=C(N)NOCC[C@H](N)C(=O)O [L-canavanine] | did not exhibit any nematotoxic activity | – | – | – | – | – | – | juveniles remained paralyzed after the recovery assay (J2 of M. incognita; 105 μg/300 μL): 25% |
| COc1c2occc2cc2ccc(=O)oc12 [Xantotoxin] | – | nematicidal effect | nematicidal effect | 87% | – | – | – | J2 paralyzed ([1]; 150 μg/300 μL): 87% |
| CO[C@H]1[C@H](O)[C@@H](O)[C@@H](O)[C@H](O)[C@@H]1O [D-pinitol] | did not exhibit any toxic effect | – | – | – | did not exhibit any toxic effect | – | – | – |
| O=C[C@H](O)[C@@H](O)[C@H](O)[C@H](O)CO [glucose] | – | – | – | – | – | 0 | – | kind of activity confirmed by recovery assay (J2 of M. incognita; solution 10% (W/V)): nematostatic activity; paralyzing of nematodes ([1]; solution 10% (W/V), 48 hours): paralyzing most of the nematodes |
| N[C@@H](Cc1ccccc1)C(=O)O [L-phenylamnine] | not capable of affecting the J2 | – | – | – | not capable of affecting the J2 | – | – | – |
| N[C@@H](Cc1c[nH]c2ccccc12)C(=O)O [L-triptofane] | not capable of affecting the J2 | – | – | – | not capable of affecting the J2 | – | – | – |
| O=C(O)/C=C(\CC(=O)O)C(=O)O [trans-aconitic acid] | – | – | – | 90% | – | <11.12 | 11.12 | nematicidal activity after the recovery assay (J2 of M. incognita; 150 μg/300 μL): 98%; % of paralyzed nematodes [1]: 27.08% |
| CCCCCCCCCCCCCCCC(=O)O [palmitic acid] | – | nematostatic effect | nematostatic effect | – | – | <7.66 | 7.66 | % of paralyzed nematodes [1]: 33.86% |
| O=C(O)/C=C(/CC(=O)O)C(=O)O [cis-aconitic, cis-aconitic acid] | – | – | – | – | – | – | – | nematicidal activity after the recovery assay (J2 of M. incognita; 150 μg/300 μL): 40% |
| S-carboxymethylcisteine | – | nematostatic effect | nematostatic effect | about 90% | – | <43.03 | 43.03 | J2 paralyzed ([1]; 150 μg/300 μL): about 90% |
